Source: publication PMC4474554 (PLoS ONE, 2015)
Several values for one entry are separate records, joined by “and”; a condition that tells them apart may be missing. Equal entries are not always repeated. Entries after “also recorded” stand apart in the source; their conditions may differ. Where two headings read alike, the source gives them in different places.

Legend:
NCI-H838 = test: MTS assay, NCI-H838
PDK1 = tested on: PDK1; design: method as in earlier work; conditions: updated data; cited from earlier work
Calu-3 = test: MTS assay, Calu-3
SK-BR-3 = test: MTS assay, SK-BR-3
NCI-H1648 = test: MTS assay, NCI-H1648
NCI-H1819 = test: MTS assay, NCI-H1819
Lck = tested on: Lck; design: method as in earlier work; conditions: updated data; cited from earlier work
c-Raf = tested on: c-Raf; design: method as in earlier work; conditions: updated data; cited from earlier work
phospho-IGF-IR = test: Western blotting, IGF-IR phosphorylation after serum-starvation; assay type: cell-based; conditions: PC-9, RPC-9, NCI-H1299, NCI-H1819; regardless of IGF-I ligand stimulation; TAE226 two hours
Procedure: (§1) Next, they were washed out with cold PBS and lysed in 1 × cell lysis buffer [20 mM Tris-HCl (pH 7.5), 150 mM NaCl, 1 mM Na2EDTA, 1 mM EGTA, 1% Triton, 2.5 mM sodium pyrophosphate, 1 mM beta-glycerophosphate, 1 mM Na3VO4, 1 μg/ml leupeptin] (Cell signaling Technology) supplemented with Complete, Mini (Roche, Basel, Switzerland) to extract protein. After the protein concentration was measured, equal amounts of total protein (30 μg) were separated by SDS-PAGE and transferred to PVDF membranes. The proteins on membranes were incubated overnight at 4°C with the primary antibodies. The following secondary antibodies were used: goat antirabbit or antimouse IgG-conjugated horseradish peroxidase (HRP) (Santa Cruz Biotechnology, Santa Cruz, CA). To detect specific signals, the membranes were incubated by ECL plus Western Blotting Detection Reagents (Amersham Biosciences UK Limited, Buckinghamshire, UK).

[1] = tested on: phospho-EGFR and phospho-AKT; test: Western blotting, EGFR and AKT phosphorylation in transfected HEK-293T; assay type: cell-based; conditions: HEK-293T cell with the mutant EGFR (L858R)
Procedure: as §1

RPC-9 xenograft = RPC-9 xenograft mouse model; assay type: in vivo, BALB/c-nu/nu female nude mice; conditions: oral, once a day, 14 days, 30, 60 and 90 mg/kg, dose-dependent
Procedure: In this experiment, we used BALB/c-nu/nu female nude mice at 4–6 weeks of age that were purchased from Charles River Laboratories Japan, Inc (Yokohama, Japan). They were maintained under specific-pathogen-free conditions in accordance with the guidelines of the Animal Care and Use Committee at Okayama University. […] Every three days, body weight of the mice and the major axis and minor axis of each tumor were measured and calculated tumor volume using the following formula; (major axis) × (minor axis)^2 × 1/2 [37, 38]. For the 14 days, tumor volume, tumor growth rate and the body weight were analyzed as an average of the each group.

NCI-H1299 = test: MTS assay, NCI-H1299
Insulin-R = tested on: Insulin-R; design: method as in earlier work; conditions: updated data; cited from earlier work
PKB/AKT = tested on: PKB/AKT; design: method as in earlier work; conditions: updated data; cited from earlier work
KDR = tested on: KDR; design: method as in earlier work; conditions: updated data; cited from earlier work
BRAF (V600E) = tested on: BRAF (V600E); design: method as in earlier work; conditions: updated data; cited from earlier work
c-Abl = tested on: c-Abl; design: method as in earlier work; conditions: updated data; cited from earlier work
PDGFR = tested on: PDGFR; design: method as in earlier work; conditions: updated data; cited from earlier work
[2] = tested on: HEK-293T with mutant EGFR (L858R); assay type: cell-based
Procedure: (§2) Drug sensitivity was determined by a modified MTS assay with CellTiter 96 AQueous One Solution Reagent (Promega, Madison, WI). Cells were generally seeded on 96-well plates at a density that would yield 80% confluence by the completion of the experiment, varying by each cell line from 3000 to 4000 per well. […] After that, MTS dye was added to each well. The cultures were incubated for another 1 hour at 37°C in a humidified atmosphere with 5% CO2. Optical densities of samples were measured at 490 nm using Immuno Mini NJ-2300 (Nalge Nunc International KK, Rochester, NY). Mean optical density at each drug concentration was calculated after discarding the highest and lowest values. […] IC50 values were expressed as mean and standard deviations. The assays were repeated until the standard deviation became less than the mean.

HCC827 = assay type: cell-based
Procedure: as §2

NCI-H1666 = test: MTS assay, NCI-H1666

## CNC(=O)c1ccccc1Nc1nc(Nc2ccc(N3CCOCC3)cc2OC)ncc1Cl [TAE226]
NCI-H838; read-out: IC50 (μM) (mean ± SD), NCI-H838, no alterations, MTS, TAE226 48 hours, gefitinib 72 hours
  IC50: 6.2 ± 0.02 µM
NCI-H838; read-out: each IC50, NCI-H838, independent MTS assays
  IC50: 6.3 µM and 6.2 µM
NCI-H838; read-out: mean IC50, NCI-H838, mean of independent MTS assays
  IC50: 6.2 µM
PDK1
  IC50: […]
Calu-3; read-out: IC50 (μM) (mean ± SD), Calu-3, HER2 amplification, MTS, TAE226 48 hours, gefitinib 72 hours
  IC50: 4.1 ± 0.37 µM
Calu-3; read-out: each IC50, Calu-3, independent MTS assays
  IC50: 4.5 µM and 3.8 µM
SK-BR-3; read-out: IC50 (μM) (mean ± SD), SK-BR-3 (breast cancer), HER2 amplification, MTS, TAE226 48 hours
  IC50: 35.1 ± 0.53 µM
SK-BR-3; read-out: each IC50, SK-BR-3, independent MTS assays
  IC50: 34.6 µM and 35.6 µM
NCI-H1648; read-out: IC50 (μM) (mean ± SD), NCI-H1648, HER2 amplification, MTS, TAE226 48 hours, gefitinib 72 hours
  IC50: 1.7 ± 0.07 µM
NCI-H1648; read-out: each IC50, NCI-H1648, independent MTS assays
  IC50: 1.7 µM and 1.8 µM
NCI-H1648; read-out: mean IC50, NCI-H1648, mean of independent MTS assays
  IC50: 1.7 µM
NCI-H1819; read-out: IC50 (μM) (mean ± SD), NCI-H1819, HER2 amplification, MTS, TAE226 48 hours, gefitinib 72 hours
  IC50: 3.8 ± 0.4 µM
NCI-H1819; read-out: each IC50, NCI-H1819, independent MTS assays
  IC50: 4 µM and 3.2 µM and 4.1 µM
Lck
  IC50: […]
c-Raf
  IC50: […]
phospho-IGF-IR
  phosphorylation of IGF-IR after serum-starvation: completely inhibited
[1]
  phosphorylations of EGFR and AKT: inhibited
RPC-9 xenograft
  tumor volume / tumor growth compared with vehicle-treated mice: significantly decreased; also recorded: significantly inhibited
NCI-H1299; read-out: IC50 (μM) (mean ± SD), NCI-H1299, no alterations, MTS, TAE226 48 hours, gefitinib 72 hours
  IC50: 2.8 ± 0.26 µM
NCI-H1299; read-out: each IC50, NCI-H1299, independent MTS assays
  IC50: 3.1 µM and 3 µM and 2.7 µM and 2.4 µM
Insulin-R
  IC50: 0.044 µM
PKB/AKT
  IC50: […]
KDR
  IC50: […]
BRAF (V600E)
  IC50: 1.4 µM
c-Abl
  IC50: 5.9 µM
PDGFR
  IC50: 2.6 µM
[2]; HEK293T-L858R, independent MTS assays, read-out: each IC50
  IC50: 0.43 µM
[2]; Transfected HEK-293T, mutant EGFR (L858R), MTS, TAE226 48 hours, gefitinib 72 hours, read-out: IC50 (μM) (mean ± SD)
  IC50: 0.41 ± 0.06 µM
HCC827; HCC827, EGFR Exon 19 del (E746-A750), MTS, TAE226 48 hours, gefitinib 72 hours, read-out: IC50 (μM) (mean ± SD)
  IC50: 0.086 ± 0.01 µM
HCC827; HCC827, independent MTS assays, read-out: each IC50
  IC50: 0.061 µM and 0.095 µM and 0.09 µM and 0.1 µM
NCI-H1666; read-out: IC50 (μM) (mean ± SD), NCI-H1666, BRAF Exon 11 (G466V), MTS, TAE226 48 hours, gefitinib 72 hours
  IC50: 0.42 ± 0.08 µM
NCI-H1666; read-out: each IC50, NCI-H1666, independent MTS assays
  IC50: 0.5 µM and 0.34 µM
